Assay results published in US6794365B2, “Malonic acid derivatives, processes for their preparation their use and pharmaceutical compositions containing them” (Aventis Pharma Deutschland GmbH, priority 2000, dated 2004).
Counter-ions that a name gives are not always drawn.

molecular target: factor Xa (Homo sapiens, UniProt P00742); assay: In vitro Factor Xa assay (Test 1a), chromogenic substrate S-2765; type: biochemical; design: purchased Enzyme Research Laboratories, Inc; South Bend, Ind; details: Factor Xa inhibitory activity; Ki from IC50 corrected for substrate competition; 25° C., pH 7.8; read-out: Ki (FXa)
Method: Purified enzymes are used in chromogenic assays. To determine the inhibition constant, the IC50 value is corrected for competition with substrate using the formula: […] where Km is the Michaelis-Menten-constant (Y.-C. Chen and W. H. Prusoff, Biochem. Pharmacol. 22: […] (1973), which is incorporated herein by reference). TBS-PEG buffer (50 mM Tris-Cl, pH 7.8, 200 mM NaCl, 0.05% (w/v) PEG-8000, 0.02% (w/v) NaN3) is used for this assay. The IC50 is determined by combining in appropriate wells of a Costar half-area microtiter plate 25 μl human factor Xa (Enzyme Research Laboratories, Inc.; South Bend, Ind.) in TBS-PEG; 40 μl 10% (v/v) DMSO in TBS-PEG (uninhibited control) or various concentrations of the compound to be tested diluted in 10% (v/v) DMSO in TBS-PEG; and substrate S-2765 (N-benzyloxycarbonyl-[…]-nitroanilide; Kabi Pharmacia, Inc.; Franklin Ohio) in TBS-PEG. […] The initial velocity of chromogenic substrate hydrolysis is measured by the change in absorbance at 405 nm using a Bio-tek Instruments kinetic plate reader ([…] 25° C. during the linear portion of the time course (usually 1.5 min after addition of substrate).

Chain of factor Xa (P00742 235-488 limits assumed): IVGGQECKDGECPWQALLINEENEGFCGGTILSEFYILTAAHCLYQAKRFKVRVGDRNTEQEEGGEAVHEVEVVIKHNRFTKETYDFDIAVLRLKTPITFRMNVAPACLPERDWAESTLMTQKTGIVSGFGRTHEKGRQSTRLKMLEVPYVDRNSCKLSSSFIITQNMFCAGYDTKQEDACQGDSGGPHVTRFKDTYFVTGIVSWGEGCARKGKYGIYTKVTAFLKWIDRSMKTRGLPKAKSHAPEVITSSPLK
Chain of factor Xa (P00742 41-179 partner limits assumed): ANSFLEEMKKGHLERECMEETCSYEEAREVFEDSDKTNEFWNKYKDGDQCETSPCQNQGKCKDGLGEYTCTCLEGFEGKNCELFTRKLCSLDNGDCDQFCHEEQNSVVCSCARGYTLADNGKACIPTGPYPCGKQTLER

| SMILES | Ki |
| --- | --- |
| N=C(N)NCCC[C@H](NC(=O)[C@@H](NC(=O)C(Cc1ccc(C(=N)N)cc1)C(=O)NCc1ccccc1)C1CCCCC1)C(=O)O (stereo partly drawn) [Example 82, 2-(S)-{2-(S)-[2-Benzylcarbamoyl-3-(4-carbamimidoyl-phenyl)-propionylamino]-2-cyclohexyl-acetylamino}-5-guanidino-pentanoic acid trifluoroacetic acid salt] | 39.3 nM |
| CN(C)C(=O)C(Cc1ccc(C(=N)N)cc1)C(=O)N[C@H](C(=O)N(CC(N)=O)Cc1ccncc1)C1CCCCC1 (single isomer, unassigned; more polar) [Example 104] | 6500 nM |
| CCCC[C@@H](NC(=O)C(Cc1ccc(C(=N)N)cc1)C(=O)N(C)C)C(=O)N[C@@H](CCCNC(=N)N)C(=O)O (stereo partly drawn) [Example 72, 2-(S)-{2-(R)-[3-(4-Carbamimidoyl-phenyl)-2-dimethylcarbamoyl-propionylamino]-hexanoylamino}-5-guanidino-pentanoic acid trifluoroacetic acid salt] | 4300 nM |
| N=C(N)NCCC[C@H](NC(=O)[C@@H](NC(=O)C(Cc1ccc(C(=N)N)cc1)C(=O)Nc1ccccc1)c1ccccc1)C(N)=O (stereo partly drawn) [Example 58, 2-(4-Carbamimidoyl-benzyl)-N-[(S)-(1-(S)-carbamoyl-4-guanidino-butylcarbamoyl)-phenyl-methyl]-N′-phenyl-malonamide trifluoroacetic acid salt] | 57.5 nM |
| CN(C)C(=O)C(Cc1ccc(C(=N)N)cc1)C(=O)N1Cc2ccccc2C[C@H]1C(=O)N[C@@H](CCCNC(=N)N)C(N)=O (stereo partly drawn) [Example 10, 2-[3-(4-Carbamimidoyl-phenyl)-2-dimethylcarbamoyl-propionyl]-1,2,3,4-tetrahydro-isoquinoline-3-(S)-carboxylic acid (1-(S)-carbamoyl-4-guanidino-butyl)-amide trifluoroacetic acid salt] | 604 nM |
| CN(C)C(=O)C(Cc1ccc(C(=N)NO)cc1)C(=O)N[C@H](C(=O)N[C@@H](CCCNC(=N)N)C(N)=O)C1CCCCC1 (single isomer, unassigned; less polar) [Example 3] | 156 nM |
| CC(C)C[C@H](NC(=O)[C@H](Cc1ccc[n+](C)c1)NC(=O)[C@@H](NC(=O)C(Cc1ccc(C(=N)N)cc1)C(=O)N(C(C)C)C(C)C)C1CCCCC1)C(=O)N1CCC[C@H]1C(N)=O (single isomer, unassigned; more polar) [Example 94] | 1700 nM |
| CC(C)C[C@H](NC(=O)[C@H](CCCNC(=N)N)NC(=O)[C@@H](NC(=O)C(Cc1ccc(N)cc1)C(=O)N(C(C)C)C(C)C)C1CCCCC1)C(=O)N1CCC[C@H]1C(N)=O (single isomer, unassigned; less polar) [Example 97] | 40 nM |
| N=C(N)NCCC[C@H](NC(=O)[C@H](CO)NC(=O)C(Cc1ccc(C(=N)N)cc1)C(=O)Nc1ccccc1)C(N)=O (stereo partly drawn) [Example 54, 2-(4-Carbamimidoyl-benzyl)-N-[1-(S)-(1-(S)-carbamoyl-4-guanidino-butylcarbamoyl)-2-hydroxy-ethyl]-N′-phenyl-malonamide trifluoroacetic acid salt] | 3010 nM |
| CCCC[C@H](NC(=O)C(Cc1ccc(C(=N)N)cc1)C(=O)Nc1ccccc1)C(=O)N[C@@H](CCCNC(=N)N)C(N)=O (stereo partly drawn) [Example 30, 2-(4-Carbamimidoyl-benzyl)-N-[1-(S)-(1-(S)-carbamoyl-4-guanidino-butylcarbamoyl)-pentyl]-N′-phenyl-malonamide trifluoroactic acid salt] | 153 nM |
| CCOC(=O)[C@H](CCCNC(=N)N)NC(=O)[C@@H](NC(=O)C(Cc1ccc(C(=N)N)cc1)C(=O)NCc1ccccc1)C1CCCCC1 (single isomer, unassigned; less polar) [Example 136] | 10 nM |
| CN(C)C(=O)C(Cc1ccc(C(=N)N)cc1)C(=O)N[C@H](C(=O)N[C@@H](CCCNC(=N)N)C(N)=O)c1ccccc1 (stereo partly drawn) [Example 56, 2-(4-Carbamimidoyl-benzyl)-N-[(S)-(1-(S)-carbamoyl-4-guanidino-butylcarbamoyl)-phenyl-methyl]-N′,N′-dimethyl-malonamide trifluoroacetic acid salt] | 2.1 nM |
| CN(C)C(=O)C(Cc1ccc(C(=N)N)cc1)C(=O)N[C@@H](CCC(=O)O)C(=O)N[C@@H](CCCNC(=N)N)C(=O)N[C@@H](CC1CCCCC1)C(N)=O (stereo partly drawn) [Example 69, 4-(S)-[3-(4-Carbamimidoyl-phenyl)-2-dimethylcarbamoyl-propionylamino]-4-[1-(S)-(1-(S)-carbamoyl-2-cyclohexyl-ethylcarbamoyl)-4-guanidino-butylcarbamoyl]-butyric acid trifluoroacetic acid salt] | 285 nM |
| C=CCNC(=O)C(Cc1ccc(C(=N)N)cc1)C(=O)N[C@@H](COCc1ccccc1)C(=O)N[C@@H](CCCNC(=N)N)C(N)=O (stereo partly drawn) [Example 61, N-Allyl-N′-[2-benzyloxy-1-(S)-(1-(S)-carbamoyl-4-guanidino-butylcarbamoyl)-ethyl]-2-(4-carbamimidoyl-benzyl)-malonamide trifluoroacetic acid salt] | 957 nM |
| C=CCNC(=O)C(Cc1ccc(C(=N)N)cc1)C(=O)N[C@@H](Cc1ccc(N)cc1)C(=O)N[C@@H](CCCNC(=N)N)C(N)=O (stereo partly drawn) [Example 17, N-Allyl-N′-[2-(4-amino-phenyl)-1-(S)-(1-(S)-carbamoyl-4-guanidino-butylcarbamoyl)-ethyl]-2-(4-carbamimidoyl-benzyl)-malonamide trifluoroacetic acid salt] | 2290 nM |
| C=CCNC(=O)C(Cc1ccc(C(=N)N)cc1)C(=O)N[C@@H](CCC(=O)O)C(=O)N[C@@H](CCCNC(=N)N)C(=O)N[C@@H](CC1CCCCC1)C(N)=O (stereo partly drawn) [Example 89, 4-(S)-[2-Allylcarbamoyl-3-(4-carbamimidoyl-phenyl)-propionylamino]-4-[1-(S)-(1-(S)-carbamoyl-2-cyclohexyl-ethylcarbamoyl)-4-guanidino-butylcarbamoyl]-butyric acid trifluoroacetic acid salt] | 6480 nM |
| C=CCOC(=O)[C@H](CCCNC(=N)N)NC(=O)[C@@H](NC(=O)C(Cc1ccc(C(=N)N)cc1)C(=O)N(C)Cc1ccccc1)C1CCCCC1 (single isomer, unassigned; less polar) [Example 6] | 1 nM |
| N=C(N)NCCC[C@H](NC(=O)[C@@H](NC(=O)C(Cc1ccc(C(=N)N)cc1)C(=O)NCc1ccccc1)C1CCCCC1)C(N)=O (single isomer, unassigned; more polar) [Example 8] | 35.1 nM |
| CN(Cc1ccccc1)C(=O)C(Cc1ccc(C(=N)N)cc1)C(=O)N[C@H](C(=O)N[C@@H](CCCNC(=N)N)C(N)=O)C1CCCCC1 (stereo partly drawn) [Example 144, N-Benzyl-2-(4-carbamimidoyl-benzyl)-N′-[(S)-(1-(S)-carbamoyl-4-guanidino-butylcarbamoyl)-cyclohexyl-methyl]-N-methyl-malonamide trifluoroacetic acid salt] | 11 nM |
| N=C(N)NCCC[C@H](NC(=O)[C@@H](NC(=O)C(Cc1ccc(C(=N)NO)cc1)C(=O)NCc1ccccc1)C1CCCCC1)C(N)=O (single isomer, unassigned; more polar) [Example 129] | 360 nM |
| N=C(N)NCCC[C@H](NC(=O)[C@@H](NC(=O)C(Cc1ccc(C(=N)NO)cc1)C(=O)NCc1ccccc1)C1CCCCC1)C(N)=O (stereo partly drawn) [Example 14, N-Benzyl-N′-[(S)-(1-(S)-carbamoyl-4-guanidino-butylcarbamoyl)-cyclohexyl-methyl]-2-[4-(N-hydroxycarbamimidoyl)-benzyl]-malonamide trifluoroacetic acid salt] | 21.8 nM |
| CCC(C)[C@@H](C(=O)N[C@@H](CCCNC(=N)N)C(N)=O)N(C)C(=O)C(Cc1ccc(C(=N)N)cc1)C(=O)Nc1ccccc1 (stereo partly drawn) [Example 21, 2-(4-Carbamimidoyl-benzyl)-N-[1-(S)-(1-(S)-carbamoyl-4-guanidino-butylcarbamoyl)-2-methyl-butyl]-N-methyl-N′-phenyl-malonamide trifluoroacetic acid salt] | 8370 nM |
| CCCC[C@H](NC(=O)C(Cc1ccc(C(=N)N)cc1)C(=O)NC)C(=O)N[C@@H](CCCNC(=N)N)C(N)=O (stereo partly drawn) [Example 28, 2-(4-Carbamimidoyl-benzyl)-N-[1-(S)-(1-(S)-carbamoyl-4-guanidino-butylcarbamoyl)-pentyl]-N′-methyl-malonamide trifluoroacetic acid salt] | 47 nM |
| N=C(N)NCCC[C@H](NC(=O)[C@H](Cc1ccc2ccccc2c1)NC(=O)C(Cc1ccc(C(=N)N)cc1)C(=O)Nc1ccccc1)C(N)=O (stereo partly drawn) [Example 38, 2-(4-Carbamimidoyl-benzyl)-N-[1-(S)-(1-(S)-carbamoyl-4-guanidino-butylcarbamoyl)-2-naphthalen-2-yl-ethyl]-N′-phenyl-malonamide trifluoroacetic acid] | 1100 nM |
| CN(C)C(=O)C(Cc1ccc(C(=N)N)cc1)C(=O)N[C@@H](CCc1ccccc1)C(=O)N[C@@H](CCCNC(=N)N)C(N)=O (stereo partly drawn) [Example 40, 2-(4-Carbamimidoyl-benzyl)-N-[1-(S)-(1-(S)-carbamoyl-4-guanidino-butylcarbamoyl)-3-phenyl-propyl]-N′,N′-dimethyl-malonamide trifluoroacetic acid salt] | 10.7 nM |
